Assay results published in patent publication US8049035B2, “Crystalline potassium salt of lipoxin A4 analogs” (Bayer Pharma AG, priority 2006, dated 2011).
Counter-ions that a name gives are not always drawn.

Legend:
Assay type in all cases: physicochemical
[1] = Dynamic vapor sorption / hygroscopicity studies (automated water sorption analyzer); details: 25° C.; for relative humidity up to which the form is stable: sorption cycle
Protocol: The transformation of the monohydrate to the dihydrate form and vice versa occurs quickly and is well defined at 25° C. and at 40° C. This was shown by dynamic vapor sorption investigations. For example, during pre-drying of the monohydrate at 25° C. and 0% relative humidity, 4.0% water is released from the monohydrate. […] Between 20% and 40% relative humidity, one mole of water is absorbed, resulting in the formation of the monohydrate. The monohydrate is stable up to approximately 50% relative humidity and then is transformed into the dihydrate by absorption of a second mole of water between 50% and 60% relative humidity. The dihydrate is the stable form up to 98% relative humidity at 25° C. During the desorption cycle between 40% and 50% relative humidity, the transformation into the monohydrate takes place. The formed monohydrate is existent up to 10% relative humidity. Between 0% and 10% relative humidity the dehydration of the monohydrate to the dehydrated form II occurs. No significant differences between the two cycles were observed.
The hygroscopicity with respect to the transformation of the monohydrate and dihydrate was re-investigated between 45% and 55% relative humidity using smaller steps for the relative humidity. […] At 40° C. the reversible transformation between the monohydrate and the dihydrate is between 57% and 59% relative humidity, approximately 10% higher than at 25° C.
Also, the transformation of the anhydrate form of the potassium salt (Ia) to the hydrate form was shown by dynamic vapor sorption investigations at 25° C. Up to 40% relative humidity the anhydrate was stable. Between 40% and 60% relative humidity approximately two moles of water are absorbed, resulting in the formation of the dihydrate.
Data collection for the hygroscopicity studies was carried out in an automated water sorption analyzer. Approximately 20 mg of the investigated solid state form of the crystalline potassium salt (Ia) was exposed to a continuous flow of nitrogen with predetermined and constant relative humidity. The rate of sweep gas was set at 200 cm^3/min. For a basic assay, two full cycles (sorption/desorption) were measured at 25° C. The measurement was started at 0% relative humidity in order to remove surface water. Once the constant mass was achieved, the next humidity was automatically set. The water sorption/desorption was investigated in steps of 10% between 0% and 90% relative humidity under the criteria for initiation of the first step as set forth herein. Additionally, the sorption at about 98% relative humidity was investigated. Data was acquired using the DVSWin software. […]

[2] = Salt screening assays of the acid (IIa): stability of the salts
Text: The following describes the salt screening assays in more detail:
Many inorganic cations were investigated to determine their ability to form a stable crystalline salt of the acid (IIa), including potassium, sodium, calcium, aluminium, magnesium, lithium, and zinc.
Several organic amines were investigated, including N-methylglucamine, diethanolamine, ethylenediamine, choline, lysine, and arginine.
In addition to the foregoing, it was investigated to form a mixed salt of the acid of Formula (IIa) with polyvalent inorganic cations and organic acids.
In general, the salt screening assay included the variability of the following different test parameters:
i) Type of cation-compound utilized (e.g., as carbonates, hydroxides, methylates, ethylates).
ii) Type of solvent utilized.
iii) Specific addition or exclusion of water (to assist the formation of hydrates or anhydrates).
iv) Type of crystallization utilized (cooling crystallization, antisolvent crystallization, or evaporation crystallization, and combinations thereof).
v) Type of screening (manual screening as well as high throughput screening).

[3] = Chemical stability of solid state forms under stress at 40° C./75% rH over 4 weeks (HPLC purity); details: for HPLC-purity: 40° C./75% RH; for chemical stability under stress (in words): 40° C./75% rH
Protocol: The chemical stability of the anhydrate and the monohydrate of the potassium salt of Formula (Ia) of the invention as well as the dehydrated form I of the potassium salt (Ia) of the invention were assessed by comparing the stability under stress at 40° C./75% rH over a period of 4 weeks.

| relative humidity up to which the form is stable [1] | HPLC-purity ([3]; 0 weeks (start)) | HPLC-purity ([3]; 2 weeks) | HPLC-purity ([3]; 4 weeks) | water released during pre-drying ([1]; 0% relative humidity, gives dehydrated form II) | chemical stability under stress (in words) ([3]; 4 weeks) | SMILES | stability compared with other salts and the free acid (in words) [2] |
| --- | --- | --- | --- | --- | --- | --- | --- |
| up to 98 % relative humidity | – | – | – | – | – | O=C(O)COC[C@H](O)[C@H](O)/C=C/C=C/C#C/C=C/[C@H](O)COc1ccc(F)cc1 [dihydrate, potassium 2-((2S,3R,4E,6E,10E,12S)-13-(4-fluorophenoxy)-2,3,12-trihydroxytrideca-4,6,10-trien-6-ynyloxy)acetate] | – |
| – | – | – | – | – | – | O=C(O)COC[C@H](O)[C@H](O)/C=C/C=C/C#C/C=C/[C@H](O)COc1ccc(F)cc1 [(Ia), potassium 2-((2S,3R,4E,6E,10E,12S)-13-(4-fluorophenoxy)-2,3,12-trihydroxytrideca-4,6,10-trien-6-ynyloxy)acetate] | substantially more stable than every other salt prepared |
| – | 97.8% | 97.1% | 95.3% | – | – | O=C(O)COC[C@H](O)[C@H](O)/C=C/C=C/C#C/C=C/[C@H](O)COc1ccc(F)cc1 [K-salt, dehydrated form I, potassium 2-((2S,3R,4E,6E,10E,12S)-13-(4-fluorophenoxy)-2,3,12-trihydroxytrideca-4,6,10-trien-6-ynyloxy)acetate] | – |
| approximately 50 % relative humidity | 99.7% | 99.6% | 99.7% | 4.0% | no sign of degradation | O=C(O)COC[C@H](O)[C@H](O)/C=C/C=C/C#C/C=C/[C@H](O)COc1ccc(F)cc1 [K-salt, Monohydrate, potassium 2-((2S,3R,4E,6E,10E,12S)-13-(4-fluorophenoxy)-2,3,12-trihydroxytrideca-4,6,10-trien-6-ynyloxy)acetate] | – |
| Up to 40 % relative humidity | 99.6% | 99.7% | 99.7% | – | no sign of degradation | O=C(O)COC[C@H](O)[C@H](O)/C=C/C=C/C#C/C=C/[C@H](O)COc1ccc(F)cc1 [K-salt, Anhydrate, potassium 2-((2S,3R,4E,6E,10E,12S)-13-(4-fluorophenoxy)-2,3,12-trihydroxytrideca-4,6,10-trien-6-ynyloxy)acetate] | – |
